Key:
[1] = system: prostate cancer cell lines; parameters: method as in PMID 28609657; details: various prostate cancer cell lines; cited from earlier work
[2] = plasma protein binding in human plasma
[3] = system: CDK1, CDK2 and WEE1 mRNA; assay: qRT-PCR of CDK1, CDK2 and WEE1; assay type: cell-based; details: MCF-7 and MDA-MB-453; overnight
Experimental: Real-time quantitative PCR analyses were performed using the ABI PRISM 7900HT Sequence Detection System (Applied Biosystems) as described earlier. Briefly, the PCR was carried out with SYBR Green PCR Master Mix (Applied Biosystems) using 2 µl of cDNA (or ChIP DNA) and the primers in a 20 µl final reaction mixture. Dissociation curves were generated for each plate to verify the integrity of the primers. Data were analyzed using SDS software version 2.2.2 and exported into an Excel spreadsheet. The 18S or Actin data were used for normalizing the gene values. The sequences for the primers are in Supplementary Table 12.
Supplementary Figure S9: Effect of ACK1 inhibition on CDKs and WEE1.
RNA from breast cancer cells treated with vehicle or varying concentrations of (R)-9b overnight were subjected to qRT-PCR using CDK1, CDK2 and WEE1 primers. 18S rRNA was used as housekeeping control. Data are represented as the mean ± SEM from 2 biologically independent experiments. *p<0.05, **p<0.01, ***p<0.001, unpaired two-tailed Student’s t-test.

[4] = system: MCF7, SKBR3, HCC-1395 and MDA-MB-453; assay: apoptosis assay, Annexin V-FITC/PI flow cytometry; assay type: cell-based; details: 0.25, 0.5, 1 µM
Experimental: For proliferation assay, 5 × 10^4 cells were plated in 6-well plate and treated with either vehicle (DMSO) or varying concentrations of (R)-9b or palbociclib in complete media for 96 h and number of viable cells were counted by trypan blue exclusion assay. Breast cancer cell lines were treated with vehicle or varying concentrations of (R)-9b for 72 h. The cells were harvested, washed 2 times with PBS and incubated with 3 ul of Annexin V-FITC antibody according to the manufacturers protocol (BD Biosciences). Five µl Propidium iodide was used to stain necrotic cells. The cells were acquired using the BD FACSCalibur machine (BD Biosciences) and data was analyzed using FlowJo software. Cell cycle analysis was performed as mentioned earlier. Briefly, vehicle or (R)-9b (48 h) treated cells were harvested by trypsinization, washed 2 times with PBS, and fixed using chilled 70% Ethanol for 1 h, followed by 2 washes with PBS. […] The data were analyzed using FlowJo software. […]
(A) MCF7, SKBR3, HCC-1395 and MDA-MB-453 cells were treated with 0.25µM, 0.5µM and 1 µM (R)-9b for 96h. […] Quantification of the live, early apoptotic, late apoptotic and necrotic cells is represented using stacked columns. […]

[5] = system: Cal-148 xenografts; assay: Cal-148 xenograft in mammary fat pad; assay type: in vivo, female SCID mice; details: 24 mg/Kg subcutaneously, 4 weeks
Experimental: In order to assess the in vivo implications of ACK1 inhibition in TNBCs, Cal-148 xenografts were established in mammary fat pad of female SCID mice. Once the tumors were palpable, the mice were injected subcutaneously with 24 mg/Kg of (R)-9b for 4 weeks and the tumor volumes were measured. On reaching the endpoint, the mice were sacrificed and the tumors were harvested, weighed and photographed. […] RNA was prepared from the tumors, followed by qRT-PCR.
Fig. 6 (R)-9b inhibits breast cancer xenograft tumor growth in vivo. A 2 × 10^6 Cal-148 cells were injected in the 4th inguinal mammary fat pad of female SCID mice. Once the tumors were palpable, the mice were treated subcutaneously with either vehicle (Captisol; n = 8) or (R)-9b at 24 mg/Kg (n = 8) five times a week, for 4 weeks. The tumor volumes were measured twice a week. B, C The tumors were harvested and photographed, and the weights were recorded. D RNA was prepared from the tumors, followed by qRT-PCR to determine the levels of CCNB1, CCNB2 and CDC20 mRNA (n = 3 each). […] The tumors were harvested, their weights were recorded and photographed. […]
All animal experiments were performed using the standards for humane care in accordance with the NIH Guide for the Care and Use of Laboratory Animals. […] Tumor volumes were measured twice a week using calipers. […]

remaining after 6 h of treatment ([2]; 6 h): over 96% | fraction unbound ([2]; human, plasma, Plasma Protein Binding (PPB)): 0.17
Structure (SMILES): CN1CCN(c2ccc(Nc3ncc(Cl)c(NC[C@H]4CCCO4)n3)cc2)CC1 [(R)-9b]
IC50 [1]: 400 nM | CDK1 and 2, and WEE1 expression [3]: affected | number of cells undergoing apoptosis [4]: marked increase | CCNB1, CCNB2 and CDC20 mRNA levels in tumors [5]: significant decrease | xenograft tumor growth ([5]; five times a week): significant suppression

Source: publication PMC10348910, “Epigenetic reprogramming of cell cycle genes by ACK1 promotes breast cancer resistance to CDK4/6 inhibitor” (Oncogene, 2023)
